# Results: patent US20250312288A1, “LIPIDS AND LIPID NANOPARTICLE FORMULATIONS” (LONGUIDE BIOPHARMA CORPORATION, priority 2024, published 2025)
# System: mice
# Test: In vivo delivery of FLuc-circ-RNA lipid nanoparticles in mice (IVIS imaging)
# Conditions: for IVIS: FLuc-circRNA LNP, IV; for delivery efficiencies on change from mRNA to circular RNA: statement on Table 3, circular RNA LNP vs mRNA LNP
# Protocol: 8.2 Investigation of the Delivery Efficacy of Nucleic Acid Lipid Nanoparticles for FLuc-Circ-mRNA in Mice
# Lipid nanoparticles loaded with nucleic acid drugs were prepared according to step 2, replacing FLuc-mRNA with FLuc-circ-RNA (Shanghai Zhiwei Technology Development Co., Ltd.). After formulation, the nanoparticles were administered via intramuscular injection (into the quadriceps femoris muscle of mice), intravenous injection (into the tail vein of mice), intraperitoneal injection, or subcutaneous injection (subcutaneously on the back). Approximately 75 μL was injected per mouse, with a total of 3 mice per group. In vivo imaging (PerkinElmer, IVIS Lumina III) was performed after a certain period of time. Ten to fifteen minutes before imaging, 200 μL of a 15 mg/mL D-Luciferin working solution was injected intraperitoneally, followed by imaging analysis using the in vivo imaging system.
smiles,measurement,setting,value
CCCCCCOC(C)OCCCCCCOC(=O)C(O)CN(CCO)CCCN(CC(O)C(=O)OCCCCCCOC(C)OCCCCCC)CC(O)C(=O)OCCCCCCOC(C)OCCCCCC (stereo not shown) [Compound L0692],IVIS,organ liver,3.34E+06
same,IVIS,organ lung,8.55E+04
same,IVIS,organ spleen,2.64E+06
same,delivery efficiencies on change from mRNA to circular RNA,,further increased the delivery efficiencies
CCCCCCC(CCCCCC)C(=O)OCCCCCCNC(=O)C(O)CN(CCO)CCCN(CC(O)C(=O)NCCCCCCOC(=O)C(CCCCCC)CCCCCC)CC(O)C(=O)NCCCCCCOC(=O)C(CCCCCC)CCCCCC (stereo not shown) [Compound L0710],IVIS,organ liver,3.07E+08
same,IVIS,organ lung,4.78E+06
same,IVIS,organ spleen,9.97E+07
same,delivery efficiencies on change from mRNA to circular RNA,,further increased the delivery efficiencies
CCCCCCC(CCCCCC)C(=O)NCCOC(=O)C(O)CN(CCO)CCCN(CC(O)C(=O)OCCNC(=O)C(CCCCCC)CCCCCC)CC(O)C(=O)OCCNC(=O)C(CCCCCC)CCCCCC (stereo not shown) [Compound L0711],delivery efficiencies on change from mRNA to circular RNA,,further increased the delivery efficiencies
CCCCCCCCC(CCCCCC)C(=O)NCCOC(=O)C(O)CN(CCO)CCCN(CC(O)C(=O)OCCNC(=O)C(CCCCCC)CCCCCCCC)CC(O)C(=O)OCCNC(=O)C(CCCCCC)CCCCCCCC (stereo not shown) [Compound L0714],delivery efficiencies on change from mRNA to circular RNA,,further increased the delivery efficiencies
